Test results published in patent US12083093B2, “Composition for preventing or treating cellular senescence-related diseases comprising salinomycin as effective component” (RESEARCH COOPERATION FOUNDATION OF YEUNGNAM UNIVERSITY, priority 2018, dated 2024).

How the values were obtained:
[1] = test system: pulmonary fibrosis induced by bleomycin; assay type: in vivo, C57BL/6J mice; conditions: compared to PBS group
Procedure: Animal experiments were conducted with the approval of the Animal Experimental Ethics Committee, Yeungnam University College of Medicine (YUMC-AEC2018-025). After anesthetizing by injecting 2.5% avertin (Avertin; 0.025 ml/g) into the abdominal cavity of 10-week-old C57BL/6J male mice, 2 mU/g of bleomycin was instilled into the bronchi and injected into the lungs.
From 5 days after bleomycin administration, 2.5 μl of 10 mM salinomycin was diluted in 100 μl phosphate buffer solution at intervals of 3 days and injected intraperitoneally 6 times (Sal group).
Three mice were used for each group, and lungs were excised by sacrifice 22 days after bleomycin injection and fixed in 10% formalin solution or stored frozen in liquid nitrogen.
(§1) The tissue fixed in 10% formalin solution was embedded with paraffin and cut into 4 μm to prepare a tissue sample. After removing paraffin from the tissue sample, hematoxylin-eosin staining, trichrome staining, and PAS staining were performed.
(§2) The degree of fibrosis was measured by analyzing the degree of collagen staining using the i-Solution™ software program (IMT Inc., Canada) after trichrome staining and the degree of cell senescence in tissue samples was investigated by staining lipofuscin with Sudan black B (Viegas M S, et al., European journal of histochemistry: EJH. 2007). The degree of peritoneal fibrosis was confirmed by measuring the submesothelial thickness of the peritoneal mesothelial cell layer using the NIH Image J program.
In addition, lung tissue samples were prepared, and hematoxylin-eosin staining and trichrome staining were performed to confirm the degree of damage to the lung tissue and the degree of lung fibrosis.

[2] = test system: replicative senescent human fibroblasts (HDF); assay: SAβG activity staining, replicative senescent human fibroblasts; assay type: cell-based; conditions: increasing concentration of salinomycin, senescent cells; FIG. 2A, 2B
Procedure: (§3) After dispensing 2×10^5 cells in a 100 mm culture dish, they were cultured in a 37° C., 5% CO2 incubator. When the cells grew to 80-90% in the culture dish, the cells were removed by treatment with trypsin-EDTA, and the number of cells was measured, and the cell population doubling time (PDT) was measured.
(§4) By successively subculturing the cells in the same process as described above, replication aging was induced. PDT of young fibroblasts was 36 hours, PDT of replicative senescent fibroblasts was 12 days, PDT of young vascular endothelial cells was 24 hours, and PDT of replicative senescent vascular endothelial cells was 7 days.
(§5) After each sample was dissolved in DMSO, young cells, replicative senescent cells and senescent cells in which premature aging was induced by treating with doxorubicin were treated with 100 nM salinomycin, 100 nM rapamycin, 100 nM ABT263. After incubation for 4 days in a 37° C., 5% CO2 incubator, the degree of cell survival was confirmed by CCK-8 analysis, the degree of cellular aging was confirmed by senescence-associated β-galactosidase (SAβG) staining, p53 and p16 protein expression analysis.
The cells were washed with 1× phosphate buffer solution, and fixed with a phosphate buffer solution containing 3.7% (v/v) paraformaldehyde. […]

[3] = test system: replicative senescent human fibroblasts (HDF); assay: CCK-8 cell survival, replicative senescent human fibroblasts; assay type: cell-based; conditions: replicative senescent cells, increasing concentration of salinomycin; FIG. 2A, 2D
Procedure: as §3, §4
(§6) After each sample was dissolved in DMSO, young cells, replicative senescent cells and senescent cells in which premature aging was induced by treating with doxorubicin were treated with 100 nM salinomycin, 100 nM rapamycin, 100 nM ABT263. […]
(§7) Young cells (1×10^3 cells/well) or senescent cells (2×10^3 cells/well) were dispensed into a 96-well plate, and cultured overnight in a 37° C., 5% CO2 incubator. […] Then, the absorbance was measured at 450 nm using a Microplate reader.
(§8) The degree of cell survival was expressed as a relative value for the absorbance of the control group treated with only DMSO as 100%.

[4] = test system: peritoneal fibrosis induced by chlorhexidine gluconate (CHG); assay: Peritoneal fibrosis induced by chlorhexidine gluconate (CHG) in mice; assay type: in vivo, C57BL/6J mice; conditions: compared to DMSO group, FIG. 9C, 9D
Procedure: Animal experiments were conducted with the approval of the Animal Experimental Ethics Committee of Yeungnam University College of Medicine (YUMC-AEC2018-033). Peritoneal fibrosis mice experiments were performed using a model of peritoneal fibrosis induced by chlorhexidine gluconate (CHG) (Yoshio Y et al., Kidney international. 2004).
From the 9th day, 2.5 μl of 10 mM salinomycin (Sal group) or 2.5 μl of DMSO (DMSO group) was diluted in 100 μl phosphate buffer solution and intraperitoneally injected at intervals of 2 days.
As a negative control (NT group), 100 μl of a 15% ethanol phosphate buffer solution was injected intraperitoneally instead of a 0.1% CHG solution. On the 20th day, the mice were sacrificed, the peritoneal tissue was excised, and the tissue was fixed in 4% paraformaldehyde solution.
as §1
as §2, with “The degree of peritoneal fibrosis was confirmed by measuring the submesothelial thickness of the peritoneal mesothelial cell layer using the NIH Image J program.” left out

[5] = test system: premature senescent renal tubular cells (HK2) by doxorubicin; assay: CCK-8 cell survival, doxorubicin-induced premature senescent HK2 cells; assay type: cell-based, human; conditions: 100 nM, 4 days; compared to DMSO-treated group; FIG. 6A-6C
Procedure: Each cell was treated in a serum-free culture solution containing doxorubicin (0.5 μM) for 4 hours. After washing the cells with a serum-free culture solution, the cells were cultured for 4 days in a culture solution containing 10% FBS, and then cellular aging was confirmed by measuring the level of senescence by staining with senescence-associated beta galactosidase.
as §5
as §7, with “incubator. Salinomycin, ABT263 and rapamycin were treated at each concentration, and then incubated for 4 days in a 37° C., 5% CO2 incubator.” for “incubator.”
The degree of cell survival was expressed as a relative value for the absorbance of the control group treated with only DMSO as 100%. […]

[6] = test system: replicative senescent vascular endothelial cells (HUVEC); assay: CCK-8 cell survival, replicative senescent HUVEC; assay type: cell-based, human; conditions: according to concentration of salinomycin; FIG. 4C
Procedure: as §3, §4, §6, §7, §8

## CC[C@@H](C(=O)[C@@H](C)[C@@H](O)[C@H](C)[C@@H]1O[C@@H]([C@@H](CC)C(=O)O)CC[C@@H]1C)[C@H]1O[C@]2(C=C[C@@H](O)[C@]3(CC[C@@](C)([C@H]4CC[C@](O)(CC)[C@H](C)O4)O3)O2)[C@H](C)C[C@@H]1C [salinomycin]
[1]; hematoxylin-eosin staining, FIG. 8C, 8D
  degree of lung tissue damage: statistically significantly reduced
[1]; i.p. 6 times at 3-day intervals, FIG. 8B
  body weight: further increased
[1]; trichrome staining, FIG. 8C, 8D
  degree of lung fibrosis: statistically significantly reduced
[2]
  SAβG activity: decreased in senescent cells in a concentration-dependent manner
[3]
  cell survival (CCK-8): no change
[4]; 2.5 μl of 10 mM salinomycin in 100 μl phosphate buffer i.p. at 2-day intervals from 9th day
  thickness of the peritoneal mesothelial cell layer: significantly reduced
[4]; i.p. at 2-day intervals from 9th day
  degree of peritoneal fibrosis: decreased
[5]
  survival (CCK-8): no change
[6]
  cell survival (CCK-8): did not affect
